Experimental data published in PubChem BioAssay AID790 (SRMLSC, 2007).
Activity calls are given as the source filed them. The rule behind the calls is not given here.

Experiments:
[1] = growth inhibition of yeast vps1Δ mutant, dose response, S. cerevisiae, background strain comparison (AID 790); settings: S. cerevisiae vps1Δ mutant growth inhibition; measured here: background strain growth inhibition
[2] = tested on: S. cerevisiae vps1Δ mutant growth inhibition; assay: as above

Row | SMILES | IC50 [1] [µM] | IC50 [2]
1 | c1ccc(COc2ccc(CN3CCN(c4ccccn4)CC3)cc2)cc1 | > 10 | > 10 µM (inactive)
2 | Cc1c(Cl)c([N+](=O)[O-])nn1Cc1ccc(C(=O)N/N=C\c2cccc(Br)c2)o1 | > 10 | < 0.049 µM
3 | Clc1ccc2[nH]c3c(NCC4CCCO4)ncnc3c2c1 (configuration not stated) | > 10 | > 10 µM (inactive)
4 | CCN1CCN(c2c(Cl)cccc2NC(=O)c2ccc(Br)o2)CC1 | > 10 | > 10 µM (inactive)
5 | CCOc1ccc(NC(=O)C/C(N)=N/O)cc1 | > 10 | > 10 µM (inactive)
6 | CC(C)Oc1ccc(/C(O)=C2/C(=O)C(=O)N(CCN(C)C)C2c2ccco2)cc1 (configuration not stated) | > 10 | > 10 µM (inactive)
7 | C=CCc1ccc(OCCCCN2CC(C)OC(C)C2)c(OC)c1 (configuration not stated) | > 10 | > 10 µM (inactive)
8 | Cc1ccc(C)c(NS(=O)(=O)c2cc(C(=O)N3CCc4ccccc4C3)ccc2Cl)c1 | 6.88 | > 10 µM (inactive)
9 | COc1ccc(Nc2nc(N)nc(CSc3nnc(N)s3)n2)cc1 | > 10 | > 10 µM (inactive)
10 | CCC(C)(C)n1nnnc1C(c1cc2cc3c(cc2[nH]c1=O)OCO3)N1CCN(C)CC1 (configuration not stated) | > 10 | > 10 µM (inactive)
11 | O=C(O)c1cc(-c2ccc(/C=N/Nc3ccc(Cl)cc3)o2)ccc1Cl | 16.4 | 4.51 µM
12 | O=C(Nc1nc(-c2ccccn2)cs1)c1ncc(Cl)c(Cl)c1Cl | 13.3 | 2.06 µM
13 | CCCCCOc1ccc(Cl)cc1CN1CCOCC1 | > 10 | > 10 µM (inactive)
14 | O=c1c2cccc3c2c(nn1CN1CCOCC1)-c1ccccc1-3 | > 10 | > 10 µM (inactive)
15 | Cn1c(=O)cc(NCc2ccccc2)[nH]c1=O | > 10 | > 10 µM (inactive)
16 | COc1ccc(NC(=O)c2ccc(CN3CCN(c4ccccc4)CC3)cc2)cc1 | > 10 | > 10 µM (inactive)
17 | O=C(NCC(=O)N(c1cccnc1)C(C(=O)NCc1ccco1)c1ccccc1)c1ccco1 (configuration not stated) | > 10 | > 10 µM (inactive)
18 | O=[N+]([O-])c1ccc(N2CCN(S(=O)(=O)c3ccc(Cl)cc3)CC2)cc1NCc1cccnc1 | > 10 | > 10 µM (inactive)
19 | O=C(NCc1ccc2c(c1)OCO2)c1ccc(-n2cnnn2)cc1 | > 10 | > 10 µM (inactive)
20 | CCC(C)(C)NC(=O)CN(C(=O)CCC(=O)Nc1ccccn1)c1ccc(F)c(Cl)c1 | > 10 | > 10 µM (inactive)
21 | Cc1nc(NC(=O)c2ccccc2)sc1-c1csc(NCc2ccccc2)n1 | > 10 | 1.96 µM

Row | SMILES | IC50 [1] [µM] | IC50 [2]
22 | COc1ccc(C(=O)c2c(C(F)(F)F)oc3c2C(=O)c2ccccc2C3=O)cc1 | 2.32 | 1.99 µM
23 | Cc1ccc(S(=O)(=O)N2CC3CC(C2)c2cccc(=O)n2C3)cc1 (configuration not stated) | > 10 | > 10 µM (inactive)
24 | O=C(NCc1ccc2c(c1)OCO2)C1CCCN1C(=O)Nc1ccccc1 (configuration not stated) | > 10 | > 10 µM (inactive)
25 | CCCOc1ccccc1N/C(=N/c1nc(C)cc(C)n1)NC(=O)COc1ccc(OC)cc1 | > 10 | > 10 µM (inactive)
26 | Cc1cc(=O)oc2c(CN3CCCCC3)c(O)c(Cl)cc12 | > 10 | > 10 µM (inactive)
27 | COc1cc(CN2CCN(c3ccc(C)cc3)CC2)cc([N+](=O)[O-])c1O | > 10 | > 10 µM (inactive)
28 | Cc1ccc(SC(=O)COc2ccc(C)c(C)c2)cc1 | > 10 | > 10 µM (inactive)
29 | Cc1cccnc1Nc1nc(-c2ccccn2)cs1 | > 10 | 4.17 µM
30 | Cc1cc(O)c(/C=N/Nc2ccc(Cl)cc2)c(=O)o1 | 4.69 | 5.43 µM (inactive)
31 | Cc1cc2ncn(CC(O)COc3cccc(C(=O)O)c3)c2cc1C (configuration not stated) | > 10 | > 10 µM (inactive)
32 | CC(C)Cc1[nH]c(=O)c(C#N)c2c1CCC2 | > 10 | > 10 µM (inactive)
33 | CCN(CC)CCn1nc(C)nc1-c1ccccc1O | > 10 | > 10 µM (inactive)
34 | COc1ccc2oc(=O)c(-c3nnc(NCc4ccco4)s3)cc2c1 | > 10 | > 10 µM (inactive)
35 | CCCC(=O)N1CCN(c2ccc(NC(=O)c3cc4ccccc4o3)cc2Cl)CC1 | 19.2 | > 10 µM (inactive)
36 | CCc1n[nH]c2c1/C(=N\O)CC(C)(C)C2 | > 10 | > 10 µM (inactive)
37 | Cn1nnc2cc(C(=O)Nc3cccnc3)ccc21 | > 10 | > 10 µM (inactive)
38 | c1ccc(-c2ccc(-c3cnc4n3CCCCC4)cc2)cc1 | > 10 | > 10 µM (inactive)
39 | COc1ccc(-c2nnc(CSc3nc4ccccc4c(=O)n3C)o2)cc1OC | > 10 | > 10 µM (inactive)
40 | FC(F)(F)COc1nc(N2CCCCC2)nc(N2CCNCC2)n1 | > 10 | > 10 µM (inactive)
41 | CC1CC(C)CN(CCOc2ccc(Cl)cc2Cl)C1 (configuration not stated) | > 10 | > 10 µM (inactive)
